≈ marks a conversion by molar mass, not a printed value.
Columns and labels:
[1] = Oral bioavailability in Sprague-Dawley rat at 2 mg/kg; assay type: ADME, organism-based; settings: in vivo
[2] = target: T1, Prostaglandin E2 receptor EP1 subtype (Homo sapiens, UniProt P34995); experiment: Antagonist activity at EP1 receptor in human U2OS cells expressing Gqi5 assessed as inhibition of PGE2-induced response after 24 hrs by FLIPR assay; assay type: functional, cell-based
T1 sequence (P34995 whole entry): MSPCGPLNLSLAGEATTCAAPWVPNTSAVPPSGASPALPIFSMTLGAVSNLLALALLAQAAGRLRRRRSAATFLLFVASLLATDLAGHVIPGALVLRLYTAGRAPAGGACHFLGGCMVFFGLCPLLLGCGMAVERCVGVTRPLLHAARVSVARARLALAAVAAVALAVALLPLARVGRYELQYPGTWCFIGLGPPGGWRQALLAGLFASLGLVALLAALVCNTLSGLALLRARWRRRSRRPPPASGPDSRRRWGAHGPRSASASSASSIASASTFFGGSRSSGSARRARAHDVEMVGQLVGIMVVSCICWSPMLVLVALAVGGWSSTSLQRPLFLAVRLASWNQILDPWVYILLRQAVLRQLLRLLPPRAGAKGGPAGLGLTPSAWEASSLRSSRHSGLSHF

[3] = Half life in Sprague-Dawley rat at 1 mg/kg, iv; assay type: ADME, organism-based; parameters: dose 1 mg/kg, route intravenous; settings: in vivo
[4] = Clearance in Sprague-Dawley rat at 1 mg/kg, iv and 2 mg/kg, po; assay type: ADME, organism-based; settings: in vivo
Rattus norvegicus = experiment: Dose-normalized AUC in Sprague-Dawley rat at 2 mg/kg, po; assay type: ADME, organism-based; parameters: dose 2 mg/kg, route oral; settings: in vivo
[5] = target: T2, Prostaglandin E2 receptor EP3 subtype (Rattus norvegicus, UniProt P34980); experiment: Antagonist activity at rat EP3 receptor expressed in human U2OS cells co-expressing Gqi5 assessed as inhibition of PGE2-induced response after 24 hrs by FLIPR assay; assay type: functional, cell-based
T2 sequence (P34980 whole entry): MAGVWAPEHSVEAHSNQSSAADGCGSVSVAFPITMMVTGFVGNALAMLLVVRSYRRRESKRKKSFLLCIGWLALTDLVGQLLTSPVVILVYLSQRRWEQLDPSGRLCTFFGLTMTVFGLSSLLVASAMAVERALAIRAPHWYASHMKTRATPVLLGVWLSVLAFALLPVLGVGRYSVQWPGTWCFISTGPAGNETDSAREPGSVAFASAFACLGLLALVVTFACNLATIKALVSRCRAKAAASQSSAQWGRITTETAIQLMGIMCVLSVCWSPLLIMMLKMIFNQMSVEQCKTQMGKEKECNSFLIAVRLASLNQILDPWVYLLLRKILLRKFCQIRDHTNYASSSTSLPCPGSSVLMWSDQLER

[6] = target: T3, Prostaglandin E2 receptor EP3 subtype (Homo sapiens, UniProt P43115); experiment: Antagonist activity at human EP3c receptor expressed in human U2OS cells assessed as inhibition of PGE2-induced calcium mobilization after 24 hrs by FLIPR assay; assay type: functional, cell-based
T3 sequence (P43115 whole entry): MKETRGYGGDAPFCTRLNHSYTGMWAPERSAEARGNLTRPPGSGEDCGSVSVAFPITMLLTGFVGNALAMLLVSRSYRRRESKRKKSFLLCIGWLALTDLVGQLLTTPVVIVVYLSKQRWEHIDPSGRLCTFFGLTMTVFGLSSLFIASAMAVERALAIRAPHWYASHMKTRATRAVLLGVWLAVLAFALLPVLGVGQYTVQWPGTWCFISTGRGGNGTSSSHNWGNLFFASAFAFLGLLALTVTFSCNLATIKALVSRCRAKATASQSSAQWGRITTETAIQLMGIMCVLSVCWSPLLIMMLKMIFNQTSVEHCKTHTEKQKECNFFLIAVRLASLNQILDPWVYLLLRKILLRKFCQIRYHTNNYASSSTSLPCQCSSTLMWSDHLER

[7] = Drug metabolism in rat liver S9 fraction assessed as glutathione conjugate level at 10 uM after 30 mins by HPLC in absence of NADPH; assay type: ADME, subcellular; settings: s9, 0.5 h
[8] = Drug metabolism in rat liver S9 fraction assessed as NADPH-dependent glutathione conjugate level at 10 uM after 30 mins by LC-MS/MS analysis; assay type: ADME, subcellular; settings: s9, 0.5 h
[9] = Drug metabolism in human liver S9 fraction assessed as NADPH-dependent glutathione conjugate level at 10 uM after 30 mins by LC-MS/MS analysis; assay type: ADME, subcellular; settings: s9, 0.5 h
[10] = Drug metabolism in human liver S9 fraction assessed as glutathione conjugate level at 10 uM after 30 mins by HPLC in absence of NADPH; assay type: ADME, subcellular; settings: s9, 0.5 h
[11] = target: Prostaglandin E2 receptor EP2 subtype (Homo sapiens, UniProt P43116); experiment: Antagonist activity against human EP2 receptor expressed in CHO-K1 cells assessed as inhibition of cAMP production after 4 hrs by FRET signal in LANCE assay; assay type: functional, cell-based
[12] = target: T3, Prostaglandin E2 receptor EP3 subtype; experiment: Binding affinity to human EP3
[13] = target: Prostaglandin F2-alpha receptor (Homo sapiens, UniProt P43088); experiment: Antagonist activity at FP receptor in human U2OS cells expressing Gqi5 assessed as inhibition of PGE2-induced response after 48 hrs by FLIPR assay; assay type: functional, cell-based
[14] = target: T4, Prostaglandin D2 receptor (Homo sapiens, UniProt Q13258); experiment: Binding affinity at human DP receptor
T4 sequence (Q13258 whole entry): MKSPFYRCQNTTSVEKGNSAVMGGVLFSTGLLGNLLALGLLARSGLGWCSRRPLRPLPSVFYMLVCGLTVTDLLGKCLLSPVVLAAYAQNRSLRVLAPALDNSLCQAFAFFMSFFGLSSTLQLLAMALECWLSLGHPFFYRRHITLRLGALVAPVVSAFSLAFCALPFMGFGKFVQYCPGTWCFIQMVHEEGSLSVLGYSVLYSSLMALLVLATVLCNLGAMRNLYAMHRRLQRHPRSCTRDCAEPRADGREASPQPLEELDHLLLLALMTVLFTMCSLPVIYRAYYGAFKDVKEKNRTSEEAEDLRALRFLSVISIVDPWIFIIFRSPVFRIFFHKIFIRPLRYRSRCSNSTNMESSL

[15] = target: Prostaglandin E2 receptor EP4 subtype (Homo sapiens, UniProt P35408); experiment: Binding affinity at human EP4 receptor
[16] = target: T5, Prostaglandin G/H synthase 2 (Rattus norvegicus, UniProt P35355); experiment: Inhibition of COX2 in rat whole blood assessed as decreased PGE2 production; assay type: tissue-based
T5 sequence (P35355 whole entry): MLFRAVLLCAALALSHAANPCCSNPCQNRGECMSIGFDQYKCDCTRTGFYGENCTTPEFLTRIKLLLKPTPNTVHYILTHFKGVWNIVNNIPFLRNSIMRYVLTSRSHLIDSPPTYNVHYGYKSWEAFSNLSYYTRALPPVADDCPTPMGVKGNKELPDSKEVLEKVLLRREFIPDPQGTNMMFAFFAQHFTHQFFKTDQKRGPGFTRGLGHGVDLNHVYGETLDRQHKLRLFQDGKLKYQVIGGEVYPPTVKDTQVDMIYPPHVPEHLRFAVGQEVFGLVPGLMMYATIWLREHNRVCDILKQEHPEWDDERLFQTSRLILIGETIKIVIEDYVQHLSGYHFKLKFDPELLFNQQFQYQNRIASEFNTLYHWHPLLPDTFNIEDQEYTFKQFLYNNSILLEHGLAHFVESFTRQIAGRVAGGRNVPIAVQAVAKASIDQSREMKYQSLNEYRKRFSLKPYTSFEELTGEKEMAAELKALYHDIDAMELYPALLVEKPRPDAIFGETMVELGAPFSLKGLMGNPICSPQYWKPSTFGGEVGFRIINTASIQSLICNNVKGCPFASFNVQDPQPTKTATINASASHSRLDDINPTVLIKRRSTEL

[17] = Aqueous solubility of the compound; assay type: physicochemical; settings: buffer
[18] = target: T6, Prostaglandin G/H synthase 1 (Rattus norvegicus, UniProt Q63921); experiment: Inhibition of COX1 in rat whole blood assessed as decreased PGE2 production; assay type: tissue-based
T6 sequence (Q63921 whole entry): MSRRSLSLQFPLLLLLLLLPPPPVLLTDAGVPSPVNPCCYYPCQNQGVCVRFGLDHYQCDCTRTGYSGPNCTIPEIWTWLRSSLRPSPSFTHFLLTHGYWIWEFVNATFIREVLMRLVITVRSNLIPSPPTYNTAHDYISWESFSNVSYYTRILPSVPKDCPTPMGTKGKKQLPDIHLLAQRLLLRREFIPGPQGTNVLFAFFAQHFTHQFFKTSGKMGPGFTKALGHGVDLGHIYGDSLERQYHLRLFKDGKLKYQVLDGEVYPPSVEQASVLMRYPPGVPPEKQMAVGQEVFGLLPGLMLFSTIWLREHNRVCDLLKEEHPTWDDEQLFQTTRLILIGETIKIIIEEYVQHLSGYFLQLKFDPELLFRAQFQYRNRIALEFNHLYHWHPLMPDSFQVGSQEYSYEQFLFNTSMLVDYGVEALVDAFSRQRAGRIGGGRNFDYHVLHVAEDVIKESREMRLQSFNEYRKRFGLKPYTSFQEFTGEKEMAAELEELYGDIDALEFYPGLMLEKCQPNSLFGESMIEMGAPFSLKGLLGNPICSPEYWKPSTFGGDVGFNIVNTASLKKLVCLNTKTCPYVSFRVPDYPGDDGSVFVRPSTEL

Cytochrome P450 3A4 = Cytochrome P450 3A4 (Homo sapiens, UniProt P08684); experiment: Inhibition of CYP3A4; assay type: ADME
[19] = target: Voltage-gated inwardly rectifying potassium channel KCNH2 (Homo sapiens, UniProt Q12809); experiment: Inhibition of human ERG
Cytochrome P450 2C9 = Cytochrome P450 2C9 (Homo sapiens, UniProt P11712); experiment: Inhibition of CYP2C9; assay type: ADME
Cytochrome P450 2D6 = Cytochrome P450 2D6 (Homo sapiens, UniProt P10635); experiment: Inhibition of CYP2D6; assay type: ADME
Cytochrome P450 2C19 = Cytochrome P450 2C19 (Homo sapiens, UniProt P33261); experiment: Inhibition of CYP2C19; assay type: ADME
Cytochrome P450 1A2 = target: T7, Cytochrome P450 1A2 (Homo sapiens, UniProt P05177); experiment: Inhibition of CYP1A2; assay type: ADME
T7 sequence (P05177 whole entry): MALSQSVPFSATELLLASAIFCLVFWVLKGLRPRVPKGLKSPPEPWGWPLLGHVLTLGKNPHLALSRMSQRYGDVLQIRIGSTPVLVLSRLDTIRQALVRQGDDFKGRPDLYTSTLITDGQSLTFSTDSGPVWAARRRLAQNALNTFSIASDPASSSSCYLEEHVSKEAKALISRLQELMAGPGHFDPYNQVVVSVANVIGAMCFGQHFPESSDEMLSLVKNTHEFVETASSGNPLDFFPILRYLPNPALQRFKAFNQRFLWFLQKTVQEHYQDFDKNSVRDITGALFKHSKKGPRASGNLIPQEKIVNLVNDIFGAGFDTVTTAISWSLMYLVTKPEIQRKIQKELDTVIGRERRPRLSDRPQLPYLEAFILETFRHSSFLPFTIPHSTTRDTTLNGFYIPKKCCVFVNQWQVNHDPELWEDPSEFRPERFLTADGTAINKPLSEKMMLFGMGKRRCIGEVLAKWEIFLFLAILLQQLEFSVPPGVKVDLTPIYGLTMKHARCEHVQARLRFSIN

Sequence of Prostaglandin E2 receptor EP2 subtype (P43116 whole entry): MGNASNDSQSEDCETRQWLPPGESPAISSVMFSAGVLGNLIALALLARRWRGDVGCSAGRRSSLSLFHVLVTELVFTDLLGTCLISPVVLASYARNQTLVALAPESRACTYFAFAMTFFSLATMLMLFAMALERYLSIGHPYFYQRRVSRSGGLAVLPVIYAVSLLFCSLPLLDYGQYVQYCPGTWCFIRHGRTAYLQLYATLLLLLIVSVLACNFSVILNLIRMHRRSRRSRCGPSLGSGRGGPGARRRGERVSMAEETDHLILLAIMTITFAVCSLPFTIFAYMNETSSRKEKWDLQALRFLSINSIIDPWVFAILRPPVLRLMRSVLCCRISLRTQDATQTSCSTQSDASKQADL
Sequence of Prostaglandin E2 receptor EP4 subtype (P35408 whole entry): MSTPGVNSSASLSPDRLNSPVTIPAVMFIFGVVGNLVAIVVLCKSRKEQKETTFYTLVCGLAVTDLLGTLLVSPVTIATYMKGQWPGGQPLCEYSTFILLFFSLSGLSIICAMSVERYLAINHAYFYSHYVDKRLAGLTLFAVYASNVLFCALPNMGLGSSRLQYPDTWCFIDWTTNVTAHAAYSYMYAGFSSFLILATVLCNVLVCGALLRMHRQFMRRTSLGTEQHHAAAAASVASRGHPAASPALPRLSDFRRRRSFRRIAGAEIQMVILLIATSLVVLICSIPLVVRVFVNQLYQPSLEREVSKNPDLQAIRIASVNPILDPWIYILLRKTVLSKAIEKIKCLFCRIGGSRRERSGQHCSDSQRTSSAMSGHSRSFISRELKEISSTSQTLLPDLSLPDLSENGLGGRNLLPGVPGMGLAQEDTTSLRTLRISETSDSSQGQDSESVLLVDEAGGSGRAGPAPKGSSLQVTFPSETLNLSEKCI
Sequence of Prostaglandin F2-alpha receptor (P43088 whole entry): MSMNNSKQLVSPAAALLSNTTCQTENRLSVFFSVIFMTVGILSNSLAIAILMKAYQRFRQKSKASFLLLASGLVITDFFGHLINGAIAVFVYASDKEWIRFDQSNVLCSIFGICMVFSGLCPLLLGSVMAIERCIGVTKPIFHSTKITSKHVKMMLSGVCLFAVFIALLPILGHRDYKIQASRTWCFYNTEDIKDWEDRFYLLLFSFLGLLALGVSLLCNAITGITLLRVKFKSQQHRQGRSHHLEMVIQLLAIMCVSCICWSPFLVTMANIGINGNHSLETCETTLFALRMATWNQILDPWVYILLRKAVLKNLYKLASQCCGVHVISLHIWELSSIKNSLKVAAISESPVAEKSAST
Sequence of Cytochrome P450 3A4 (P08684 whole entry): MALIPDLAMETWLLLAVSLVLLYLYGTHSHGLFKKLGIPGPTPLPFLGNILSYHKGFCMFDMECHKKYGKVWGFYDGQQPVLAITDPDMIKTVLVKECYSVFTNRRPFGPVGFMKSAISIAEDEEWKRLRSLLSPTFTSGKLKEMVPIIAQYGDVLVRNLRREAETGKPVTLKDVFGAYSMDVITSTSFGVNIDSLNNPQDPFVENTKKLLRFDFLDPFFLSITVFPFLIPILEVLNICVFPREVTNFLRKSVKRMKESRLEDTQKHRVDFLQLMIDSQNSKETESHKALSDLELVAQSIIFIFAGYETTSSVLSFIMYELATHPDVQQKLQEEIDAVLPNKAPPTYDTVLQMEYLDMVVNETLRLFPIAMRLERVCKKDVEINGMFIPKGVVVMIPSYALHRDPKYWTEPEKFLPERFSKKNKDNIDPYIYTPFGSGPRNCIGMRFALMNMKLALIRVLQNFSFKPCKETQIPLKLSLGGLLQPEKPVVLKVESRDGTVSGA
Sequence of Voltage-gated inwardly rectifying potassium channel KCNH2 (Q12809 whole entry): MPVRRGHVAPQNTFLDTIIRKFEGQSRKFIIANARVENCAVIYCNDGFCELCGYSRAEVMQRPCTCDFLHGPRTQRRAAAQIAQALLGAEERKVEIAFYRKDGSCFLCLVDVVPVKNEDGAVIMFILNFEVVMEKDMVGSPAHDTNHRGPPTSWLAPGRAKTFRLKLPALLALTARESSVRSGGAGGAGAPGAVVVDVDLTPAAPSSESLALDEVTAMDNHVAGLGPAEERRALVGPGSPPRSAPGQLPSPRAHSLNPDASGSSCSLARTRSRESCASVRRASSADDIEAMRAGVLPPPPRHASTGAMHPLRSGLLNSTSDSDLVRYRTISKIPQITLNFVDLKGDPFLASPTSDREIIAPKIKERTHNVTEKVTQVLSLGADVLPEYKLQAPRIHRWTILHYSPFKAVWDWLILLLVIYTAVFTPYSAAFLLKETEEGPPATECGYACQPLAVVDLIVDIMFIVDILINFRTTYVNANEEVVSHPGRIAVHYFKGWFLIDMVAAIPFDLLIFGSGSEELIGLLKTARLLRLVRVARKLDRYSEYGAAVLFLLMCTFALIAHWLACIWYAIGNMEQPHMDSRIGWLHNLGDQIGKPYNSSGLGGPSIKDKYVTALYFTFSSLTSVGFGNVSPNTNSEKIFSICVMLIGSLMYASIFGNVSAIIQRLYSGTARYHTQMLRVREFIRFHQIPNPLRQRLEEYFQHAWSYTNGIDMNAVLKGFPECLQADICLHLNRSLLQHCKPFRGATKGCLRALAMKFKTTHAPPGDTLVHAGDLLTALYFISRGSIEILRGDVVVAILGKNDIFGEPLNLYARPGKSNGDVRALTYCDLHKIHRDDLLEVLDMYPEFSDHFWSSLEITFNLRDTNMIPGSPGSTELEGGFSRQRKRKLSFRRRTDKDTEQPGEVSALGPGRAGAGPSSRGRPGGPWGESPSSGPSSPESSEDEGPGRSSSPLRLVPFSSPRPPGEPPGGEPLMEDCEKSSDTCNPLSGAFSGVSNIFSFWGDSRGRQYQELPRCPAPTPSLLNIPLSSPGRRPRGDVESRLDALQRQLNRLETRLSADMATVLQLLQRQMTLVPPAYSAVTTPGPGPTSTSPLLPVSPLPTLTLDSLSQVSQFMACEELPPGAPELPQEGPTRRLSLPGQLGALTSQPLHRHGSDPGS
Sequence of Cytochrome P450 2C9 (P11712 whole entry): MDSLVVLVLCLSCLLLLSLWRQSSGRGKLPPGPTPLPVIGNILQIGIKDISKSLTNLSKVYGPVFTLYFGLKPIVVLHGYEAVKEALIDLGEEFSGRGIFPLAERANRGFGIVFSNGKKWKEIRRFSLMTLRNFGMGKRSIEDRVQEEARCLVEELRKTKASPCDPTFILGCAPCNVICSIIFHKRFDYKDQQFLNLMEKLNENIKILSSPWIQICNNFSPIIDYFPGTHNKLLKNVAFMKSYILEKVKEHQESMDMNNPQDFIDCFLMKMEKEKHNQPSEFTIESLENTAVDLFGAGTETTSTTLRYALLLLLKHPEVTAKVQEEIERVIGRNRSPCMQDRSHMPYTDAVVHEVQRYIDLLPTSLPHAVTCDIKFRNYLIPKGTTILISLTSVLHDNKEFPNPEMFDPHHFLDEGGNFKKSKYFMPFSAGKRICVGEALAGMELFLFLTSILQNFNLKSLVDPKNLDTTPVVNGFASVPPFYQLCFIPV
Sequence of Cytochrome P450 2D6 (P10635 whole entry): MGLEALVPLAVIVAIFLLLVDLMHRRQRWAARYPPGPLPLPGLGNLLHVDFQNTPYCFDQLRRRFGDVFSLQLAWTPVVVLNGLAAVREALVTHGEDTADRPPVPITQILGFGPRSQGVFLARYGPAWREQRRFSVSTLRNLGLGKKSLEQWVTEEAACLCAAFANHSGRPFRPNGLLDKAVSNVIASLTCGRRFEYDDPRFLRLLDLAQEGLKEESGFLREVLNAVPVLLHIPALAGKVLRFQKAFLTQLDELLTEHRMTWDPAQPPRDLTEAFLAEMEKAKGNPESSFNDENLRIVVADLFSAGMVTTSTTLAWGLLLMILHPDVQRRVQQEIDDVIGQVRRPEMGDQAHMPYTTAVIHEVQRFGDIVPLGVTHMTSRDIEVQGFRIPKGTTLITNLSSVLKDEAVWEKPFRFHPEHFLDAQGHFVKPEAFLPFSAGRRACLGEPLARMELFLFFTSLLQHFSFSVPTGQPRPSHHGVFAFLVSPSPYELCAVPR
Sequence of Cytochrome P450 2C19 (P33261 whole entry): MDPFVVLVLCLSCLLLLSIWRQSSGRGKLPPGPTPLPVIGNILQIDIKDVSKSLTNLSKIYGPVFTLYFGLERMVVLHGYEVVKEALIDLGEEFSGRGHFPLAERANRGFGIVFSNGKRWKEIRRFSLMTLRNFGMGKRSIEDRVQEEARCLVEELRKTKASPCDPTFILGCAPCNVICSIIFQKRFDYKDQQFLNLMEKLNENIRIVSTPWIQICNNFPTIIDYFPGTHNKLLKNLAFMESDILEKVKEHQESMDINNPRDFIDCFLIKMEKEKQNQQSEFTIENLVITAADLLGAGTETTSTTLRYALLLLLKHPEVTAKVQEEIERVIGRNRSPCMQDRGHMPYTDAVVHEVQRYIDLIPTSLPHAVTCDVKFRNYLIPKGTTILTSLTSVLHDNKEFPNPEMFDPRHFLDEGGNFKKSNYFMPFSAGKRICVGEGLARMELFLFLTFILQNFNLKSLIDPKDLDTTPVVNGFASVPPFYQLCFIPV

Row | SMILES | bioavailability [1] [%] | Ki [2] [µM] | half-life [3] [h] | clearance [4] [L/h/kg] | AUC/dose (Rattus norvegicus) [µg·h/mL/mg/kg] | Ki [5] [µM] | Ki [6] [µM] | Drug metabolism [8] | Drug metabolism [9] | other results
1 | O=C1NC(=O)C(c2ccc(-c3ccc4ccccc4c3)[nH]c2=O)O1 (stereo not given) | 32 | > 5.01 | 5.1 | 1.86 | 0.17 | 0.316 | 0.2 | – | – | –
2 | Cc1ccc(-c2ccc(C3(C(C)C)OC(=O)NC3=O)c(=O)[nH]2)cc1C (stereo not given) | 68 | – | 2.8 | 0.378 | 1.8 | 0.0126 | 0.02 | Not Active | Not Active | Drug metabolism [7]: Not Active; Drug metabolism [10]: Not Active
3 | CC(C)C1(c2ccc(-c3ccc4ccccc4c3)[nH]c2=O)OC(O)=NC1=O (stereo not given) | 83 | > 50.1 | 4 | 0.156 | 5.5 | 0.01 | 0.01 | Active | Not Active | IC50 [11]: > 50.1 µM; Ki [12]: 0.00501 µM; IC50 [13]: > 50.1 µM; IC50 [14]: > 50.1 µM; IC50 [15]: > 50.1 µM; IC50 [16]: > 100 µM; solubility [17]: 193 µM (≈ 69.9 µg/mL); IC50 [18]: > 100 µM; IC50 (Cytochrome P450 3A4): > 50.1 µM; IC50 [19]: > 50.1 µM; IC50 (Cytochrome P450 2C9): > 50.1 µM; IC50 (Cytochrome P450 2D6): > 50.1 µM; IC50 (Cytochrome P450 2C19): > 50.1 µM; IC50 (Cytochrome P450 1A2): > 50.1 µM

From ChEMBL document CHEMBL2034937, “Novel 3-Oxazolidinedione-6-aryl-pyridinones as Potent, Selective, and Orally Active EP3 Receptor Antagonists” (ACS Med Chem Lett, 2010)
